Data published in ChEMBL document CHEMBL4837181 (Eur J Med Chem, 2020).

Experiments:
[1] = Chemical stability of compound in simulated intestinal fluid assessed as compound remaining at 5 uM measured after 24 hrs by LC-MS/MS analysis; type: ADME, physicochemical; conditions: read-out: Stabilty
[2] = Chemical stability of compound in 0.1 N aqueous HCl buffer assessed as compound remaining at pH 1 at 5 uM measured after 24 hrs by LC-MS/MS analysis; type: physicochemical; conditions: pH 1, 24 h
[3] = Chemical stability of compound in simulated gastric fluid assessed as compound remaining at 5 uM measured after 24 hrs by LC-MS/MS analysis; type: ADME, physicochemical; conditions: read-out: Stabilty
[4] = Stability in mouse plasma assessed as parent compound remaining measured after 2 hrs by LC-MS/MS analysis; type: ADME, cell-free; conditions: read-out: Stabilty
[5] = Change in Cmax in rat at 37 umol/kg, po measured upto 72 hrs by LC-MS/MS analysis; type: ADME, organism-based; conditions: in vivo, at 37 µmol/kg
[6] = Chemical stability of compound in simulated intestinal fluid assessed as compound remaining at 5 uM measured after 3 hrs by LC-MS/MS analysis; type: ADME, physicochemical; conditions: read-out: Stabilty
[7] = Chemical stability of compound in 0.1 N aqueous HCl buffer assessed as compound remaining at pH 1 at 5 uM measured after 1.5 hrs by LC-MS/MS analysis; type: physicochemical; conditions: pH 1, 1.5 h
[8] = Stability in human plasma assessed as parent compound remaining measured after 24 hrs by LC-MS/MS analysis; type: ADME, cell-free; conditions: read-out: Stabilty
[9] = Chemical stability of compound in saline assessed as compound remaining at 5 uM measured after 24 hrs by LC-MS/MS analysis; type: physicochemical; conditions: read-out: Stabilty
[10] = Change in AUC (infinity) in rat at 37 umol/kg, po measured upto 72 hrs by LC-MS/MS analysis; type: ADME, organism-based; conditions: in vivo, at 37 µmol/kg
[11] = Dose normalized AUC (0 to infinity) in rat at 10 mg/kg, po measured upto 72 hrs by LC-MS/MS analysis; type: ADME, organism-based; conditions: in vivo
[12] = Change in normalised AUCinfinity in rat at 10 mg/kg, po measured upto 72 hrs by LC-MS/MS analysis; type: ADME, organism-based; conditions: in vivo
[13] = Chemical stability of compound in simulated gastric fluid assessed as compound remaining at 5 uM measured after 1.5 hrs by LC-MS/MS analysis; type: ADME, physicochemical; conditions: read-out: Stabilty
[14] = Stability in human plasma assessed as parent compound remaining measured after 6 hrs by LC-MS/MS analysis; type: ADME, cell-free; conditions: read-out: Stabilty
[15] = Change in normalised Cmax in rat at 10 mg/kg, po measured upto 72 hrs by LC-MS/MS analysis; type: ADME, organism-based; conditions: in vivo
[16] = Chemical stability of compound in PBS buffer assessed as compound remaining at pH 7.4 at 5 uM measured after 24 hrs by LC-MS/MS analysis; type: physicochemical; conditions: read-out: Stabilty
[17] = Stability in rat plasma assessed as parent compound remaining measured after 2 hrs by LC-MS/MS analysis; type: ADME, cell-free; conditions: read-out: Stabilty
[18] = Dose normalized Cmax in rat at 10 mg/kg, po measured upto 72 hrs by LC-MS/MS analysis; type: ADME, organism-based; conditions: in vivo
[19] = Chemical stability of compound in PBS buffer assessed as compound remaining at pH 7.4 at 5 uM measured after 6 hrs by LC-MS/MS analysis; type: physicochemical; conditions: read-out: Stabilty

remaining at 24 h, 5 µM [1] [%] | Stabilty [2] [%] | remaining at 24 h, 5 µM [3] [%] | remaining at 2 h [4] [%] | Activity [5] [%] | remaining at 3 h, 5 µM [6] [%] | Stabilty [7] [%] | remaining at 24 h [8] [%] | remaining at 24 h, 5 µM [9] [%] | Activity [10] [%] | AUC/dose [11] [µM·h] | Activity [12] [%] | remaining at 1.5 h, 5 µM [13] [%] | remaining at 6 h [14] [%] | Activity [15] [%] | remaining at 24 h, 5 µM [16] [%] | remaining at 2 h [17] [%] | Cmax/dose [18] [µM] | remaining at 6 h, 5 µM [19] [%] | Compound
85 | 91 | 88 | 100 | – | 88 | 99 | 86 | 91 | – | 574 | 13 | 90 | 90 | 2 | 60 | 100 | 17.6 | 81 | Cl.Cn1cc(C[C@@H](NC(=O)[C@@H](N)CCC(=O)O)C(=O)O)c2ccccc21
0 | 76 | 60 | 0 | – | 67 | 52 | 54 | 76 | – | 774 | 52 | 85 | 85 | -14 | 0 | 0 | 15 | 85 | Cl.Cn1cc(C[C@@H](N)C(=O)OCCC2CCOCC2)c2ccccc21
0 | 78 | 83 | 49 | – | 53 | 65 | 83 | 78 | – | 372 | -27 | 83 | 93 | -51 | 74 | 100 | 8.5 | 100 | Cl.Cn1cc(C[C@@H](NC(=O)[C@@H](N)CCC(N)=O)C(=O)O)c2ccccc21
0 | 99 | 97 | 88 | – | 66 | 92 | 82 | 99 | – | 617 | 21 | 95 | 87 | 41 | 95 | 100 | 24.4 | 95 | CC(C)C[C@H](N)C(=O)N[C@H](Cc1cn(C)c2ccccc12)C(=O)O.Cl
0 | 90 | 86 | 0 | – | 65 | 99 | 11 | 90 | – | 329 | -35 | 89 | 68 | -54 | 96 | 0 | 7.9 | 96 | CCOC(=O)[C@@H](Cc1cn(C)c2ccccc12)NC(=O)[C@@H](N)Cc1ccccc1.Cl
69 | 61 | 73 | 90 | – | 88 | 52 | 94 | 61 | – | 415 | -18 | 81 | 97 | -31 | 33 | 76 | 12 | 55 | Cl.Cn1cc(C[C@@H](NC(=O)[C@@H](N)Cc2c[nH]c3ccccc23)C(=O)O)c2ccccc21

Continued, molecule first:

Compound | remaining at 24 h, 5 µM [1] [%] | Stabilty [2] [%] | remaining at 24 h, 5 µM [3] [%] | remaining at 2 h [4] [%] | Activity [5] [%] | remaining at 3 h, 5 µM [6] [%] | Stabilty [7] [%] | remaining at 24 h [8] [%] | remaining at 24 h, 5 µM [9] [%] | Activity [10] [%] | AUC/dose [11] [µM·h] | Activity [12] [%] | remaining at 1.5 h, 5 µM [13] [%] | remaining at 6 h [14] [%] | Activity [15] [%] | remaining at 24 h, 5 µM [16] [%] | remaining at 2 h [17] [%] | Cmax/dose [18] [µM] | remaining at 6 h, 5 µM [19] [%]
CCOC(=O)[C@@H](Cc1cn(C)c2ccccc12)NC(=O)[C@@H](N)CCC(N)=O.Cl | 1 | 85 | 88 | 0 | 12 | 70 | 73 | 0 | 85 | -1 | 806 | 58 | 108 | 23 | 41 | 17 | 0 | 24.4 | 67
Cl.Cn1cc(C[C@@H](N)C(=O)OCC2CCNCC2)c2ccccc21 | 3 | 23 | 73 | 0 | -69 | 45 | 36 | 2 | 23 | -54 | 889 | 75 | 75 | 44 | 24 | 12 | 19 | 21.5 | 92
CCOC(=O)[C@@H](Cc1cn(C)c2ccccc12)NC(=O)[C@@H](N)[C@@H](C)CC.Cl | 38 | 97 | 97 | 0 | – | 91 | 95 | 16 | 97 | – | 606 | 19 | 98 | 75 | -26 | 63 | 0 | 12.8 | 97
CC[C@H](C)[C@H](N)C(=O)N[C@H](Cc1cn(C)c2ccccc12)C(=O)O.Cl | 0 | 98 | 77 | 80 | – | 94 | 92 | 86 | 98 | – | 316 | -38 | 81 | 84 | -28 | 100 | 54 | 12.5 | 100
Cl.Cn1cc(C[C@@H](NC(=O)[C@@H](N)Cc2ccccc2)C(=O)O)c2ccccc21 | 0 | 92 | 80 | 66 | – | 91 | 96 | 75 | 92 | – | 425 | -16 | 79 | 87 | -31 | 92 | 19 | 11.9 | 89
